Test results published in patent US6716411B2, “Method for finding nucleotide synthesis inhibitors having fewer side effects” (Aventis Pharma Deustschland GmbH, priority 1999, dated 2004).
Like-named read-outs stand apart in the source and are kept apart here.

How the values were obtained:
[1] = tested on: adjuvant-induced arthritis; test: Adjuvant-induced arthritis model, colestyramine 4 hours after compound 1 (Example 3); type: in vivo; conditions: for Increase in body weight / Reduction in arthritis score / Reduction in paw swelling / Surviving animals: orally
Description: Example 3 illustrates an experiment to determine whether the action of the minimally effective dose of compound 1 is reduced by administration of colestyramine at a time interval of 4 hours. This was investigated in the adjuvant-induced arthritis model. The model was carried out according to Example 1. Compound 1 was administered orally in 1% CMC daily from the start to the end of the investigation in a dose of 2.5 mg/kg/day. Colestyramine was likewise administered orally in 1% CMC 4 hours after the administration of compound 1. The corresponding control groups received equal volumes of a 1% CMC at the corresponding times.
In Example 3, we investigated whether relatively constant blood levels existing over a fairly long time were responsible for the desired effects of compound 1 on the immune system, or whether blood levels occurring for a short time (peak blood levels) of compound 1 caused this effect.
For this, compound 1 was administered orally once daily at the lowest efficacious dose of 2.5 mg/kg/day (see Example 1). In the corresponding comparison groups, colestyramine was administered 4 hours after administration of compound 1 in order to lower the blood levels of compound 1 in an accelerated manner after the absorption phase had taken place. By means of this, the action of blood levels of compound 1 existing for different lengths of time on the immunologically related pathological processes in adjuvant-induced arthritis in the rat was investigated.

pemphigus vulgaris = test: Observation of leflunomide treatment in humans; type: in vivo; conditions: rheumatoid arthritis patients treated with leflunomide
Description: This diarrhea adversely affected the quality of life of the patient. Because of the problems caused by this side effect, an attempt was made, after more than two years' therapy with a constant dose of 20 mg of leflunomide per day, to end the therapy.
This observation was surprising, as the active metabolite of leflunomide, compound 1, has a half-life of approximately 14 days in humans. Furthermore, in this patient the blood levels of the active metabolite of leflunomide were repeatedly determined in the relatively high range between 70 mg/l and 85 mg/l.

[2] = Tolerability of constant (mini-infusion pump) versus pulse-like (oral) blood levels (Example 5); type: in vivo, rat; conditions: male, Lewis, rat, plasma, subcutaneous, read-out: Compound 1 blood plasma level (day 27)
Description: In order to attain constant blood levels, a mini-infusion pump was subcutaneously implanted into experimental animals. The mini-infusion pumps contained 2 ml of a 15% strength ethanolic solution of compound 1, which was continuously released over 28 days. Doses of 2.5, 5, 10 and 25 mg/kg/day were employed. For comparison, animals which received the same daily doses of the compound 1, but administered orally, were implanted with mini-infusion pumps; these, however, were filled with only the vehicle (15% ethanol in water). A 1% strength CMC was additionally administered orally to animals which received the compound 1 via mini-infusion pumps. The survival of the animals was taken as a course parameter. Additionally, blood was taken on day 5 and day 27 in order to determine the blood levels of compound 1. Blood was taken from animals 4 hours after oral administration of compound 1. The group was comprised of 6 male Lewis rats having a body weight of approximately 210 g. Corresponding to the preceding experiments, adjuvant arthritis was induced in the animals on day 5.
For the attainment of constant blood levels of compound 1, the animals were implanted subcutaneously with a mini-infusion pump which supplied compound 1 to the animals continuously for 28 days. By means of this pump, constant blood levels of compound 1 were attained. Thus long half-lives of compound 1, such as are observed in humans, were simulated.
For the comparison group, animals were treated with the identical daily dose of compound 1, but received the substance orally rather than by mini-infusion pump.
In this experiment, the tolerability of the compound 1 with a short half-life (compound 1 orally administered) was compared with the tolerability of the compound 1 with a long half-life (compound 1 by pump with a constant infinite half-life). The doses employed were 2.5 mg/kg/day, 5 mg/kg/day, 10 mg/kg/day and 25 mg/kg/day. The number of animals surviving the treatment was used as a measure of the tolerability. The tolerability was moreover compared with respect to the observed blood levels.

[3] = Blood plasma level of compound 1 in the rat with and without colestyramine (HPLC-MS/MS); type: in vivo; conditions: for half-life: male, Lewis, rat, plasma
Description: A selective HPLC-MS/MS method was used for the detection of compound 1. The quantitative determination of compound 1 from the blood plasma was carried out as follows:
A solution of an internal standard, then 0.1 M NaOH solution and 1 ml of diethyl ether were added. The mixture was vigorously shaken and the organic phase was discarded. 0.5 N HCl solution was added to the aqueous phase, and the analyte and the internal standard were extracted with 1 ml of diethyl ether. The organic phase was evaporated and taken up in a 1:1 mixture of acetonitrile and water. 10 μl of this solution was injected into an HPLC unit.
The HPLC unit contained a Lichrospher C-18HD column. Using a flow rate of 1 ml/min, the analyte and the internal standard were eluted using the eluent combination acetonitrile+(ammonium acetate solution [10 mmolar]), 67+33, and then selectively detected by mass spectroscopy (LC-MS/MS analysis). During the analysis of the blood plasma samples, calibration samples were taken.
In order to test foreign substances in identical metabolic situations, compound 1 was given only to animals with adjuvant arthritis. The arthritis was induced according to Example 1. The animal weight was on average 210 g. Each group consisted of 6 male Lewis rats. Blood samples were obtained from the tail.
The influence on the blood plasma level of compound 1 was investigated by means of colestyramine. […] During combination therapy with colestyramine, 1000 mg/kg of colestyramine was administered 4 hours after administration of the compound 1. Control animals received 1% CMC at the appropriate times without any active compound. The influence on the pharmacokinetics of compound 1 by colestyramine was investigated both after single administration and after chronic administration of compound 1 with or without colestyramine. Blood samples were obtained 2, 4, 6, 8, 24 and 48 hours after the last administration of compound 1.
The term “area under the curve” (AUC) is understood as meaning the area under the concentration level of a pharmaceutical substance plotted as a function of time. The AUC reflects the extent to which an organism is exposed to a substance. The term “chronic administration” is understood as meaning an administration of the compound 1 over a period of time which at least leads to constant blood levels of the compound 1. These constant blood levels, referred to as the steady state, are achieved after approximately 4 to 5 half-lives of regular taking.

[4] = 2.5 mg/kg/day of compound 1 alone
[5] = 2.5 mg/kg/day of compound 1 and 1000 mg/kg/day of cholestyramine 4 hours later
[6] = chronic administration, 2.5 mg/kg of compound 1
[7] = chronic administration, 2.5 mg/kg of compound 1 and 1000 mg/kg of colestyramine 4 hours later
[8] = single administration, 2.5 mg/kg of compound 1
[9] = single administration, 2.5 mg/kg of compound 1 and 1000 mg/kg of colestyramine 4 hours later

For C/C(O)=C(\C#N)C(=O)Nc1ccc(C(F)(F)F)cc1 [compound 1, N-(4-trifluoromethylphenyl)-2-cyano-3-hydroxycrotonamide], the “desired action on adjuvant-induced arthritis with versus without colestyramine 4 hours after compound 1” value ([1]; 2.5 mg/kg/day of compound 1) was “No difference was seen”, the “Increase in body weight” value [1, 4] was 20% and the “Reduction in arthritis score” value [1, 4] was 70%. The “Reduction in paw swelling” value [1, 4] was 78%, the Surviving animals [1, 4] was 100% and the “Increase in body weight” value [1, 5] was 20%. The “Reduction in arthritis score” value [1, 5] was 81%, the “Reduction in paw swelling” value [1, 5] was 86% and the Surviving animals [1, 5] was 100%. For the same compound, the “blood levels of the compound 1” value (pemphigus vulgaris) was “over 32 mg/l”, the concentration at 27 day ([2]; 2.5 mg/kg/day mini-infusion) was 2340 ng/mL and the concentration at 27 day ([2]; 5 mg/kg/day mini-infusion) was 4180 ng/mL. The concentration at 27 day ([2]; 10 mg/kg/day mini-infusion) was 6720 ng/mL, the “Area under the curve 0-48 hours” value [3, 6] was 63.58 μg/ml × hr and the “Maximum blood plasma level” value [3, 6] was 5.73 µg/mL. The “Area under the curve 0-48 hours” value [3, 7] was 37.81 μg/ml × hr, the “Maximum blood plasma level” value [3, 7] was 4.66 µg/mL and the half-life ([3]; oral, 2.5 mg/kg, chronic administration, 2.5 mg/kg of compound 1) was 3.45 h. The half-life ([3]; oral, 2.5 mg/kg, single administration, 2.5 mg/kg of compound 1, rats with adjuvant arthritis) was 3.85 h, the half-life ([3]; oral, chronic administration, 2.5 mg/kg of compound 1 and 1000 mg/kg of colestyramine 4 hours later) was 3.47 h and the half-life ([3]; oral, single administration, 2.5 mg/kg of compound 1 and 1000 mg/kg of colestyramine 4 hours later) was 3.32 h. For the same compound, the half-life ([3]; po, 2.5 mg/kg/day, in rats, approximately, orally administered) was 4 to 8 h, the “AUC reduced by administration of colestyramine” value ([3]; multiple administration) was 40% and the “AUC reduced by administration of colestyramine” value ([3]; single administration) was 30%. The “Area under the curve 0-48 hours” value [3, 8] was 141.69 μg/ml × hr, the “Maximum blood plasma level” value [3, 8] was 10.15 µg/mL and the “Area under the curve 0-48 hours” value [3, 9] was 99.90 μg/ml × hr. For the same compound, the “Maximum blood plasma level” value [3, 9] was 9.62 µg/mL.
